Experimental data from US8895559B2, “Quinoxalines derivatives and pharmaceutical compositions and kits” (Merck Patent GmbH, priority 2010, dated 2014).

Each molecule was assayed on PI3K (assay: Cellular testing of PI3K inhibitors: P-S473-PKB Luminex assay in PC3 cells). Details: PI3 kinase inhibition, cell.
Format: cell-based
Procedure: Description of the Method for the Cellular Testing of PI3K Inhibitors
The cellular assay for determination of the P-S473-PKB level is carried out as a Luminex assay in 96-well format in PC3 cells.
PC3 cells are sown out with 20,000 cells per well in 100 μl medium (45% RPMI1460/45% Ham's F12/10% FCS) and incubated on the following day for 30 min with a serial dilution of the test substance (7 concentrations) under serum-free conditions. […] The lysates are incubated overnight at 4° C. with shaking with Luminex beads to which an anti-total PKB antibody is coupled. The detection is carried out on the following day by addition of a P-S473-PKB antibody and a species-specific PE-labelled secondary antibody. The detection of P-S473-PKB is carried out by measurement in a Luminex 100 instrument by determination of 100 events per cavity in a measurement time of 60 sec. […] The values of the preparations treated with test substance are calculated from this as percent of control, and IC50 values are determined by means of RS1.

Compound | IC50
COc1cc(Nc2nc3ccccc3nc2NS(=O)(=O)c2cn(C)cn2)c2c(c1)OCO2 [Compound A1] | 100 to 10000 nM
COc1cc(Nc2nc3ccccc3nc2NS(=O)(=O)c2ccc(C#N)cc2)c(CCCN(C)C)c(OC)c1 [Compound A2] | 100 to 10000 nM
COc1cc(Nc2nc3ccccc3nc2NS(=O)(=O)c2ccc(C#N)cc2)c(CCCN2CCS(=O)(=O)CC2)c(OC)c1 [Compound A3] | 1 to 100 nM
COc1cc(Nc2nc3ccccc3nc2NS(=O)(=O)c2cn(C)cn2)c(CCCN2CCS(=O)(=O)CC2)c(OC)c1 [Compound A4] | 100 to 10000 nM
COc1cc2c(c(Nc3nc4ccccc4nc3NS(=O)(=O)c3cn(C)cn3)c1)OC(CO)C2 (stereo not shown) [Compound A5] | 100 to 10000 nM
COc1cc(Nc2nc3ccccc3nc2NS(=O)(=O)c2ccc(C#N)cc2)c(CCCCO)c(OC)c1 [Compound A6] | 1 to 100 nM
COc1cc(Nc2nc3ccccc3nc2NS(=O)(=O)c2cn(C)cn2)c(CCCCO)c(OC)c1 [Compound A7] | 100 to 10000 nM
COc1cc(Nc2nc3ccccc3nc2NS(=O)(=O)c2cn(C)cn2)c2oc(C(=O)N(C)C)cc2c1 [Compound A9] | 100 to 10000 nM
COc1cc(Nc2nc3ccccc3nc2NS(=O)(=O)c2cn(C)cn2)c2c(c1)OCCO2 [Compound A10] | 100 to 10000 nM
COc1cc(C)c(OC)c(Nc2nc3ccccc3nc2NS(=O)(=O)c2cn(C)cn2)c1 [Compound A11] | 100 to 10000 nM
COc1cc(C)c(OC)c(Nc2nc3ccccc3nc2NS(=O)(=O)c2ccc(C(=O)N(C)C)cc2)c1 [Compound A12] | 100 to 10000 nM
CCc1c(Nc2nc3ccccc3nc2NS(=O)(=O)c2ccc(C(=O)N(C)C)cc2)cc(OC)cc1OC [Compound A13] | 100 to 10000 nM
CCc1c(Nc2nc3ccccc3nc2NS(=O)(=O)c2cn(C)cn2)cc(OC)cc1OC [Compound A14] | 100 to 10000 nM
COc1cc(Nc2nc3ccccc3nc2NS(=O)(=O)c2ccc(C(=O)N(C)C)cc2)c2occc2c1 [Compound A15] | > 10000 nM
COc1cc(Nc2nc3ccccc3nc2NS(=O)(=O)c2cn(C)cn2)c2occc2c1 [Compound A16, 1-Methyl-1H-imidazole-4-sulfonic acid [3-(5-methoxybenzofuran-7-ylamino)quinoxalin-2-yl]amide] | > 10000 nM
CCc1cc(OC)cc(Nc2nc3ccccc3nc2NS(=O)(=O)c2cn(C)cn2)c1OC [Compound A17] | > 10000 nM
CCc1cc(OC)cc(Nc2nc3ccccc3nc2NS(=O)(=O)c2ccc(C(=O)N(C)C)cc2)c1OC [Compound A18] | > 10000 nM
COc1cc(Nc2nc3ccccc3nc2NS(=O)(=O)c2ccncc2)c(OCCCO)c(OC)c1 [Compound A21] | > 10000 nM
COc1cc(Nc2nc3ccccc3nc2NS(=O)(=O)c2cncs2)c(OCCCO)c(OC)c1 [Compound A22] | 1 to 100 nM
COc1cc(Nc2nc3ccccc3nc2NS(=O)(=O)c2cnn(CCN(C)C)c2)c(OCCCO)c(OC)c1 [Compound A23, 1-(2-Dimethylamino-ethyl)-1H-pyrazole-4-sulfonic acid {3-[2-(3-hydroxypropoxy)-3,5-dimethoxy-phenylamino]quinoxalin-2-yl} amide] | 100 to 10000 nM
COc1cc(Nc2nc3ccccc3nc2NS(C)(=O)=O)c(OCCCO)c(OC)c1 [Compound A25] | 100 to 10000 nM
COc1cc(Nc2nc3ccccc3nc2NS(=O)(=O)c2ccccc2OC)c(OCCCO)c(OC)c1 [Compound A26] | 100 to 10000 nM

Compound | IC50
COc1cc(Nc2nc3ccccc3nc2NS(=O)(=O)c2cnn(CC(=O)N(C)C)c2)c(OCCCO)c(OC)c1 [Compound A27] | 100 to 10000 nM
COc1cc(Nc2nc3ccccc3nc2NS(=O)(=O)c2cn(C)c(CN(C)C)n2)c(OCCC(C)O)c(OC)c1 (stereo not shown) [Compound A28] | 1 to 100 nM
COc1cc(Nc2nc3ccccc3nc2NS(=O)(=O)c2cnn(C(F)F)c2)c(OCCCO)c(OC)c1 [Compound A29] | 1 to 100 nM
COc1cc(Nc2nc3ccccc3nc2NS(=O)(=O)c2ccccc2)c(OCCCO)c(OC)c1 [Compound A30] | 1 to 100 nM
COc1cc(Nc2nc3ccccc3nc2NS(=O)(=O)c2cn(C)c(CN(C)C)n2)c(OC)c(OC)c1 [Compound A31] | 100 to 10000 nM
COc1cc(Nc2nc3ccccc3nc2NS(=O)(=O)c2cn(C)cn2)c(OCC(C)CO)c(OC)c1 (stereo not shown) [Compound A32] | 100 to 10000 nM
COc1cc(Nc2nc3ccccc3nc2NS(=O)(=O)c2cn(C)c(CN(C)C)n2)c(OCCCO)c(OC)c1 [Compound A33] | 100 to 10000 nM
CCOC(=O)Nc1ccc(S(=O)(=O)Nc2nc3ccccc3nc2Nc2cc(OC)cc(OC)c2OCCCO)cc1 [Compound A34] | 100 to 10000 nM
COc1cc(Nc2nc3ccccc3nc2NS(=O)(=O)C2CCS(=O)(=O)C2)c(OCCCO)c(OC)c1 (stereo not shown) [Compound A35] | 1 to 100 nM
COc1cc(Nc2nc3ccccc3nc2NS(=O)(=O)CCCS(C)(=O)=O)c(OCCCO)c(OC)c1 [Compound A36] | 1 to 100 nM
COc1cc(Nc2nc3ccccc3nc2NS(=O)(=O)c2ccc(CN(C)C)cc2)c(OCCCO)c(OC)c1 [Compound A38, 4-dimethylaminomethyl-N-{3-[2-(3-hydroxypropoxy)-3,5-dimethoxyphenylamino]quinoxalin-2-yl}benzenesulfonamide] | 1 to 100 nM
COc1cc(Nc2nc3ccccc3nc2NS(=O)(=O)C(F)(F)F)c(OCCCO)c(OC)c1 [Compound A39] | 1 to 100 nM
COc1cc(Nc2nc3ccccc3nc2NS(=O)(=O)C(F)(F)F)c(OC)c(OC)c1 [Compound A40] | 1 to 100 nM
COc1cc(Nc2nc3ccccc3nc2NS(=O)(=O)c2ccc(C#N)s2)c(OCCS(C)(=O)=O)c(OC)c1 [Compound A41] | 1 to 100 nM
COc1cc(Nc2nc3ccccc3nc2NS(=O)(=O)c2cn(C)cn2)c(OCCC(C)O)c(OC)c1 (stereo not shown) [Compound A42] | 1 to 100 nM
COc1cc(Nc2nc3ccccc3nc2NS(=O)(=O)c2cnn(C)c2)c(OCCC(C)O)c(OC)c1 (stereo not shown) [Compound A43] | 100 to 10000 nM
COc1cc(Nc2nc3ccccc3nc2NS(=O)(=O)c2cnn(C)c2)c(OCCCO)c(OC)c1 [Compound A44] | 1 to 100 nM
COc1cc(Nc2nc3ccccc3nc2NS(=O)(=O)c2ccc(C#N)cc2)c(OCCC(C)O)c(OC)c1 (stereo not shown) [Compound A45] | 1 to 100 nM
COCCOCCOc1c(Nc2nc3ccccc3nc2NS(=O)(=O)c2cn(C)cn2)cc(OC)cc1OC [Compound A47] | 1 to 100 nM
COCCOCCOc1c(Nc2nc3ccccc3nc2NS(=O)(=O)c2ccc(C#N)cc2)cc(OC)cc1OC [Compound A48] | 1 to 100 nM
COc1cc(Nc2nc3ccccc3nc2NS(=O)(=O)C(F)(F)F)c(OCCOCCO)c(OC)c1 [Compound A49] | 1 to 100 nM
COc1cc(Nc2nc3ccccc3nc2NS(=O)(=O)c2ccc(NC(C)=O)cc2)c(OCCCO)c(OC)c1 [Compound A50] | 1 to 100 nM

Compound | IC50
COc1cc(Nc2nc3ccccc3nc2NS(=O)(=O)c2ccc(C#N)s2)c(OCCCO)c(OC)c1 [Compound A51] | 1 to 100 nM
COc1cc(Nc2nc3ccccc3nc2NS(=O)(=O)c2cn(C)cn2)c(OCC[S+](C)[O-])c(OC)c1 (stereo not shown) [Compound A52] | 100 to 10000 nM
COc1cc(Nc2nc3ccccc3nc2NS(=O)(=O)c2ccc(F)cc2)c(OCCOCCO)c(OC)c1 [Compound A53] | 1 to 100 nM
COc1cc(Nc2nc3ccccc3nc2NS(=O)(=O)c2cn(C)cn2)c(OCCN2CCOCC2)c(OC)c1 [Compound A54] | 100 to 10000 nM
COc1cc(Nc2nc3ccccc3nc2NS(=O)(=O)c2cn(C)cn2)c(OCCS(C)(=O)=O)c(OC)c1 [Compound A55] | 1 to 100 nM
CCCS(=O)(=O)Nc1nc2ccccc2nc1Nc1cc(OC)cc(OC)c1OCCOCCO [Compound A56] | 100 to 10000 nM
COc1cc(Nc2nc3ccccc3nc2NS(=O)(=O)c2ccc(CN(C)C)cc2)c(OCCOCCO)c(OC)c1 [Compound A57, 4-Dimethylaminomethyl-N-(3-{2-[2-(2-hydroxy-ethoxy)ethoxy]-3,5-dimethoxyphenylamino}-quinoxalin-2-yl)benzenesulfonamide] | 100 to 10000 nM
COc1cc(Nc2nc3ccccc3nc2NS(=O)(=O)c2ccccc2)c(OCCOCCO)c(OC)c1 [Compound A58] | 1 to 100 nM
COc1cc(Nc2nc3ccccc3nc2NS(=O)(=O)c2ccc(C#N)s2)c(OCCOCCO)c(OC)c1 [Compound A59] | 1 to 100 nM
COc1cc(Nc2nc3ccccc3nc2NS(=O)(=O)c2cccs2)c(OCCN(C)CCO)c(OC)c1 [Compound A60] | 1 to 100 nM
COc1ccc(S(=O)(=O)Nc2nc3ccccc3nc2Nc2cc(OC)cc(OC)c2OCCOCCO)cc1 [Compound A61] | 100 to 10000 nM
COc1cc(Nc2nc3ccccc3nc2NS(=O)(=O)c2ccc(NC(C)=O)cc2)c(OCCOCCO)c(OC)c1 [Compound A62] | 100 to 10000 nM
COc1cc(Nc2nc3ccccc3nc2NS(=O)(=O)c2cccc(C#N)c2)c(OCCOCCO)c(OC)c1 [Compound A63] | 100 to 10000 nM
COc1cc(Nc2nc3ccccc3nc2NS(=O)(=O)c2cccs2)c(OCCOCCO)c(OC)c1 [Compound A64] | 1 to 100 nM
COc1cc(Nc2nc3ccccc3nc2NS(=O)(=O)c2cccnc2)c(OCCOCCO)c(OC)c1 [Compound A65] | 100 to 10000 nM
COc1cc(Nc2nc3ccccc3nc2NS(=O)(=O)c2cccs2)c(OCCO)c(OC)c1 [Compound A66] | 1 to 100 nM
COc1cc(Nc2nc3ccccc3nc2NS(=O)(=O)c2cccnc2)c(OCCS(=O)(=O)CCO)c(OC)c1 [Compound A67] | 100 to 10000 nM
COc1cc(Nc2nc3ccccc3nc2NS(=O)(=O)c2cccnc2)c(OCCN(C)CCO)c(OC)c1 [Compound A68] | 100 to 10000 nM
COc1cc(Nc2nc3ccccc3nc2NS(=O)(=O)c2ccc(C(=O)N(C)C)cc2)c(OCCOCCO)c(OC)c1 [Compound A69] | 100 to 10000 nM
COc1cc(Nc2nc3ccccc3nc2NS(=O)(=O)c2ccc(C#N)cc2)c(OCCN2CCOCC2)c(OC)c1 [Compound A70] | 1 to 100 nM
